Measured values taken from US20120003661A1, “METHODS AND DEVICES FOR THE SELECTIVE DETECTION OF MICROORGANISMS” (C3 JIAN, INC., priority 2010, published 2012).
Entries after “also recorded” stand apart in the source; their conditions may differ.

tested on: bacteria, fungi, and/or yeasts; assay type: binding; conditions: microorganism(s) listed as target(s) of the targeting peptide; wrapped target lists given cell by cell

Question: With 1T-262 (LSLPLIVLTKSI) as the substance, how does the “Target(s)” value read?
Answer: A. naeslundii, F. nucleatum, P. gingivalis,; also recorded: S. epidermidis, S. gordonii,; also recorded: S. mitis, S. mutans, S. oralis,; also recorded: S. salivarious, S. sanguinis

Question: How did the “Target(s)” value turn out when PF-021 (FSLNFSKQKYVTVN) was run?
Answer: yeast and hyphal forms; also recorded: S. epidermidis, M. luteus, P. mirabilis,; also recorded: E. coli, C. albicans, E. faecalis,; also recorded: C. jeikeium

Question: For 1T-16 (IDMR), which “Target(s)” value is on record?
Answer: yeast and hyphal forms

Question: Which “Target(s)” value does the source give for PF-058 (FADQSQDNA) here?
Answer: S. epidermidis, M. luteus, E. coli,; also recorded: C. albicans, MRSA, C. jeikeium,; also recorded: C. jejuni

Question: Which “Target(s)” value does the source give for “1T-273 (YNEPNYKWLESYKIYKQRCEDRTGMYYTEET)” here?
Answer: F. nucleatum, P. gingivalis, T. denticola,; also recorded: S. mitis, S. mutans, S. oralis

Question: How did the “Target(s)” value turn out when PF-617 (PMNAAEPE) was run?
Answer: yeast and hyphal forms

Question: How did the “Target(s)” value turn out when PF-063 (IAAIIVLVLFQKGLLQIFNWILIQLQ) was run?
Answer: S. epidermidis, M. luteus, E. coli,; also recorded: P. aeruginosa, MRSA, S. pneumoniae,; also recorded: E. faecalis, C. jeikeium,; also recorded: C. jejuni

Question: PF-143 (LSPRPIIVSRRSRADNNNDWSR) was tested. Which “Target(s)” value did it give?
Answer: S. epidermidis, MRSA, C. jeikeium

Question: For PF-129 (MKLLARDPWVCAWNDIW), which “Target(s)” value is on record?
Answer: S. epidermidis, MRSA, E. faecalis,; also recorded: C. jeikeium, C. jejuni

Question: How did the “Target(s)” value turn out when 1T-274 (ETTTEINAIKLHRIKQRSPQGTRRVN) was run?
Answer: F. nucleatum, S. mutans, S. oralis,; also recorded: S. sanguinis

Question: How did the “Target(s)” value turn out when PF-160 (SFHASLTKNEKPIKSTG) was run?
Answer: S. epidermidis

Question: Which “Target(s)” value does the source give for PF-005 (MESIFKIKLMNGICRSENMNMKKKNKGEKI) here?
Answer: S. epidermidis, E. coli, MRSA, S. pneumoniae,; also recorded: E. faecalis

Question: Which “Target(s)” value does the source give for “PF-126 (FSPEAFGIGAAGVLGSFVTGLLIGWVASLLRKAK)” here?
Answer: S. epidermidis, M. luteus, P. mirabilis,; also recorded: E. coli, P. aeruginosa,; also recorded: C. albicans, MRSA, S. pneumoniae,; also recorded: E. faecalis, C. jeikeium,; also recorded: C. jejuni

Question: How did the “Target(s)” value turn out when PF-151 (EEYPARVPLSGEDVTEARRH) was run?
Answer: S. epidermidis, MRSA, E. faecalis,; also recorded: C. jeikeium

same assay, conditions: microorganism(s) that the targeting peptide binds, as listed in Table 2

Question: PF-797 (WYYFDNNGYM) was tested. Which “Target(s)” value did it give?
Answer: S. mutans

Question: Which “Target(s)” value does the source give for “PF-C061 (TLNYKKMFFSVIFLLGLNYLICNSPLFFKQIEF)” here?
Answer: A. naeslundii, F. nucleatum, P. gingivalis,; also recorded: S. mutans, T. denticola

Question: Which “Target(s)” value does the source give for PF-C068 (LNLFASI) here?
Answer: A. naeslundii, F. nucleatum, S. mutans

same assay, conditions: microorganism(s) the targeting peptide binds, as listed in Table 2

Question: How did the “Target(s)” value turn out when 1T-6 (KFINGVLSQFVLERK) was run?
Answer: S. mutans

Question: With 1T-160 (AQYKYINKLLN) as the substance, how does the “Target(s)” value read?
Answer: A. naeslundii, F. nucleatum, P. gingivalis,; also recorded: T. denticola, S. gordonii,; also recorded: S. mitis, S. mutans, S. oralis,; also recorded: S. salivarious, S. sanguinis

Question: 1T-45 (WTKPSFTDLRLGFEVTLYFANR) was tested. Which “Target(s)” value did it give?
Answer: S. aureus, S. epidermidis, C. striatum,; also recorded: P. aeruginosa

Question: For 1T-16 (IDMR), which “Target(s)” value is on record?
Answer: P. aeruginosa

Question: 1T-87 (EAVGQDLVDAHHP) was tested. Which “Target(s)” value did it give?
Answer: S. mitis, S. mutans, S. oralis

Question: Which “Target(s)” value does the source give for 1T-18 (YSKTLHFAD) here?
Answer: S. aureus, S. epidermidis, C. striatum,; also recorded: P. aeruginosa

Question: For 1T-192 (ILVLLALQVELDSKFQY), which “Target(s)” value is on record?
Answer: S. sanguinis

Question: Which “Target(s)” value does the source give for “1T-138 (YPNEYCIFLENLSLEELKEIKAINGETLNLEEIINERKNLKD)” here?
Answer: A. naeslundii, F. nucleatum, P. gingivalis,; also recorded: S. epidermidis, S. gordonii,; also recorded: S. mitis, S. mutans, S. oralis,; also recorded: S. salivarious, S. sanguinis

Question: How did the “Target(s)” value turn out when 1T-183 (PLRSFVAEKAEHAFRVVRIADFDFGHS) was run?
Answer: A. naeslundii, F. nucleatum, P. gingivalis,; also recorded: S. epidermidis, S. gordonii,; also recorded: S. mitis, S. mutans, S. oralis,; also recorded: S. salivarious, S. sanguinis

Question: How did the “Target(s)” value turn out when 1T-51 (GKPKRMPAEFIDGYGQALLAGA) was run?
Answer: S. aureus, P. aeruginosa

Question: 1T-125 (DAITGGNPPLSDTDGLRP) was tested. Which “Target(s)” value did it give?
Answer: S. epidermidis, S. gordonii, S. mutans,; also recorded: S. oralis

Question: Which “Target(s)” value does the source give for “1T-197 (TEILNFLITVCADRENWKIKHGLSDSVLLIFFARFTGAEYW)” here?
Answer: A. naeslundii, F. nucleatum, P. gingivalis,; also recorded: S. epidermidis, S. gordonii,; also recorded: S. mitis, S. mutans, S. oralis,; also recorded: S. salivarious, S. sanguinis

Question: How did the “Target(s)” value turn out when 1T-72 (EPTDGVACKER) was run?
Answer: P. aeruginosa
